The text below walks through data of patent US9546176B2, “Small molecule bicyclic and tricyclic CFTR correctors” (DISCOVERYBIOMED, INC., priority 2012, dated 2017).

The term EC50 denotes the concentration giving half of the maximal effect.

This test has as its target T1, delF508-CFTR (Homo sapiens, UniProt P13569, DEL508-508).
T1 construct: endogenous in cells; host or cells: CFBE41o- human CF bronchial epithelial cells (delF508 homozygous)
The test can be described thus: SPQ halide-sensitive fluorescence dye assay for rescue of halide efflux (8-point concentration-response). The class given is cell-based. To be noted: for ΔSPQ (difference between maximum and minimum SPQ values) / EC50: CFBE41o- cells, 48 h; for EC50: read-out: SPQ EC50; for potency and efficacy compared with VX-809 in SPQ assay: versus VX-809. How it is done: The method of profiling can include detecting the rescue of halide efflux from a cell. The step of detecting a rescue of halide efflux from the cell can be monitored using the halide quenched dye 6-methoxy-N-(3-sulfopropyl)-quinolinium (SPQ, Molecular Probes Inc., Eugene, Oreg.). In this method, cells are treated with a compound as described herein for a period of time (e.g., 48 hours). The rescue or correction of halide efflux is then detected using the SPQ assay with the halide dye. […] Optionally, the halide efflux is chloride efflux. The method of screening can further comprise performing the method with multiple concentrations of the compound.
The compounds were initially subjected to the SPQ halide-sensitive fluorescence dye profiling assay for rescue or correction of membrane chloride ion permeability or transport with an 8-point concentration-response curve. The EC50 values for the compounds described herein were determined using SPQ (Table 1). The ΔSPQ value was calculated by determining the difference between the maximum and minimum SPQ values for the compounds.
To perform the SPQ high throughput screening assay, CFBE41o-cells were seeded into 96-well microtiter plates and were loaded with the fluorescent halide-sensitive dye, SPQ, in serum-containing culture medium. Certain wells were loaded with known positive control corrector molecules, including the industry standard Vertex 809 (VX-809; Vertex Pharmaceuticals, Cambridge, Mass.) at 3 μM, which is the maximally effective profiling dose for VX-809. The test compounds were loaded into wells and were tested in triplicate wells at a 10 μM dose and incubated over 48 hours at room temperature. During the 48 hour period, SPQ was absorbed. Plates were washed in a sodium chloride (NaCl) based Ringer and read once over two minutes to set the baseline SPQ fluorescence activity. Then, NaCl was replaced by sodium nitrate (NaNO3) based Ringer. The plates were read twice over four minutes. The primary high throughput screen (HTS) data were analyzed to detect any function of rescued delF508-CFTR under basal conditions. The plate was read up to two times to complete the SPQ HTS assay.

T1 sequence (P13569 with tags, fused parts or gaps DEL508-508): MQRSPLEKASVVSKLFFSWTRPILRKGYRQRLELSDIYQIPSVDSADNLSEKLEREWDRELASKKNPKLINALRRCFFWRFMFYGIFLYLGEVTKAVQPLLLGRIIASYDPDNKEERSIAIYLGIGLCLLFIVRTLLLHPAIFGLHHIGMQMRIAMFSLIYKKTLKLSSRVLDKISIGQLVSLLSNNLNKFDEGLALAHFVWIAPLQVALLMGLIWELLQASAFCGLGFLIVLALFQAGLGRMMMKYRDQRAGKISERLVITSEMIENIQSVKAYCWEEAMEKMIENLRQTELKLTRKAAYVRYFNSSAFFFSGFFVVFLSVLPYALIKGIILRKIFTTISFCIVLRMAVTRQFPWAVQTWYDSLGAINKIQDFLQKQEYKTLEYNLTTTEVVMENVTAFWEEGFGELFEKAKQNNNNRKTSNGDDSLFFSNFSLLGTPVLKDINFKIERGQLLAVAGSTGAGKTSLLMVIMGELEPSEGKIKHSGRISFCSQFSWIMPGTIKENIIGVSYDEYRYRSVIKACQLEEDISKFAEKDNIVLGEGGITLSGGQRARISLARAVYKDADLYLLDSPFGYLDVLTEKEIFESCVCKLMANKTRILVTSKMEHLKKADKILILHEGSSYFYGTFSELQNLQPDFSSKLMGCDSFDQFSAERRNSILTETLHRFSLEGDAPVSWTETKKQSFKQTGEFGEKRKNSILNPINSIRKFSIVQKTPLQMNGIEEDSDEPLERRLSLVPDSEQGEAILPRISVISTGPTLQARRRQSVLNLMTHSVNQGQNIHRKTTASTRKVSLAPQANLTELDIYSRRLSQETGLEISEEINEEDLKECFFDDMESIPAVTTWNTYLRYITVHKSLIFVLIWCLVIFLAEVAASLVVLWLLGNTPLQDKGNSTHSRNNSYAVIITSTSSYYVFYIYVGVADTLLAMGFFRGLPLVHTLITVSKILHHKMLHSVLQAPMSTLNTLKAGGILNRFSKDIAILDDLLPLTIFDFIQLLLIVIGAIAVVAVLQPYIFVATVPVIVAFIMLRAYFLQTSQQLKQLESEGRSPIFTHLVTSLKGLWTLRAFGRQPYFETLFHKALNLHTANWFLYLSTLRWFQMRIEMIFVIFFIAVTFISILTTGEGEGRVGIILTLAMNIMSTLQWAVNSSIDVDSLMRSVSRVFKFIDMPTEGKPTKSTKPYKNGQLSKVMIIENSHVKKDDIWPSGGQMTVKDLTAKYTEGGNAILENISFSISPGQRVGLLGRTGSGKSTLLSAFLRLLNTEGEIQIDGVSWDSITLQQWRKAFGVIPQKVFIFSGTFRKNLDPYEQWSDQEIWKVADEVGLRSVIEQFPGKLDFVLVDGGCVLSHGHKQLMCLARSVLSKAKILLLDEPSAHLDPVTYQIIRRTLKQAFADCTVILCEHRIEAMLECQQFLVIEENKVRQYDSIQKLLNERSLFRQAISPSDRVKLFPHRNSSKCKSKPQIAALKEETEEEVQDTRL

`C=CCn1c(=O)c2c(nc3n(-c4cccc(C)c4)c(C)c(C)n23)n(C)c1=O` [Compound I-15]: the “ΔSPQ (difference between maximum and minimum SPQ values)” value is given as 5708 RFU; the EC50 came out at 6.1 µM.

In the case of `C=CCn1c(C)cn2c3c(=O)n(Cc4ccccc4C)c(=O)n(C)c3nc12` [Compound I-16], the “ΔSPQ (difference between maximum and minimum SPQ values)” value worked out at 6996 RFU; the EC50 was 17.7 µM.

Take `CCCn1c(=O)c2c(nc3n(-c4ccccc4OC)c(C)c(C)n23)n(C)c1=O` [Compound I-17]: the “ΔSPQ (difference between maximum and minimum SPQ values)” value turned out to be 3733 RFU; the EC50 came to 8.8 µM.

For `CCCn1c(=O)c2c(nc3n(-c4ccccc4O)c(C)c(C)n23)n(C)c1=O` [Compound I-18], the “ΔSPQ (difference between maximum and minimum SPQ values)” value is on record as 5235 RFU; the EC50 was 7.1 µM.

In the case of `C/C=C/Cn1c(=O)c2c(nc3n(-c4ccccc4O)c(C)c(C)n23)n(C)c1=O` [Compound I-19], the “ΔSPQ (difference between maximum and minimum SPQ values)” value stood at 2058 RFU; the EC50 was 3.2 µM.

On to `C=CCn1c(=O)c2c(nc3n(-c4ccccc4C)c(C)c(C)n23)n(C)c1=O` [Compound I-20], for which the “ΔSPQ (difference between maximum and minimum SPQ values)” value was determined as 9362 RFU; the EC50 stood at 3.8 µM.

In the case of `C=CCn1c(C)cn2c3c(=O)n(Cc4cccc(C)c4)c(=O)n(C)c3nc12` [Compound I-21], the “ΔSPQ (difference between maximum and minimum SPQ values)” value was found to be 7073 RFU; the half-maximal effective concentration (EC50) was 9.4 µM.

As for `C=CCn1c(C)cn2c3c(=O)n(Cc4ccc(F)cc4)c(=O)n(C)c3nc12` [Compound I-22], the “ΔSPQ (difference between maximum and minimum SPQ values)” value was determined as 8993 RFU; the EC50 is 6.3 µM.

Regarding `CCn1c(=O)c2c(nc3n(-c4cccc(Cl)c4C)c(C)cn23)n(C)c1=O` [Compound I-23], the “ΔSPQ (difference between maximum and minimum SPQ values)” value worked out at 13290 RFU; the EC50 amounted to 10.5 µM.

As for `CCCn1c(C)cn2c3c(=O)n(Cc4cccc(C)c4)c(=O)n(C)c3nc12` [Compound I-24], the “ΔSPQ (difference between maximum and minimum SPQ values)” value was found to be 5227 RFU; the EC50 turned out to be 3.7 µM.

As for `CCn1c(=O)c2c(nc3n(-c4ccccc4OC)c(C)c(C)n23)n(C)c1=O` [Compound I-25], the “ΔSPQ (difference between maximum and minimum SPQ values)” value turned out to be 6949 RFU; the EC50 was 10.4 µM.

In the case of `C=CCn1c(=O)c2c(nc3n(-c4ccc(OC)cc4)c(C)c(C)n23)n(C)c1=O` [Compound I-26], the “ΔSPQ (difference between maximum and minimum SPQ values)” value amounted to 4090 RFU; the EC50 came out at 3.1 µM.

As for `C/C=C/Cn1c(=O)c2c(nc3n(CCCC)c(C)cn23)n(C)c1=O` [Compound I-27], the “ΔSPQ (difference between maximum and minimum SPQ values)” value amounted to 8829 RFU; the EC50 was 18.4 µM.

In the case of `CCCCn1c(=O)c2c(nc3n(CCO)c(C)cn23)n(C)c1=O` [Compound I-28], the “ΔSPQ (difference between maximum and minimum SPQ values)” value was determined as 1344 RFU; the EC50 was 3 µM.

With `CCn1c(=O)c2c(nc3n(-c4cccc(OC)c4)c(C)c(C)n23)n(C)c1=O` [Compound I-29], the “ΔSPQ (difference between maximum and minimum SPQ values)” value is recorded as 10298 RFU; the EC50 stood at 9.6 µM.

Consider `CCn1c(=O)c2c(nc3n(C(C)c4ccccc4)c(C)cn23)n(C)c1=O` (stereo not shown) [Compound I-30], for which the “ΔSPQ (difference between maximum and minimum SPQ values)” value stood at 18574 RFU; the EC50 is 22.6 µM.

Regarding `CCCn1c(=O)c2c(nc3n(CC(C)C)c(C)c(C)n23)n(C)c1=O` [Compound I-31], the “ΔSPQ (difference between maximum and minimum SPQ values)” value was found to be 300 RFU; the EC50 was 12.7 µM.

For `CCCn1c(=O)c2c(nc3n(Cc4ccco4)c(C)c(C)n23)n(C)c1=O` [Compound I-32], the “ΔSPQ (difference between maximum and minimum SPQ values)” value was found to be 2989 RFU; the EC50 was determined as 3.3 µM.

In the case of `CCc1ccc(-n2c(C)c(C)n3c4c(=O)n(CCCO)c(=O)n(C)c4nc23)cc1` [Compound I-33], the “ΔSPQ (difference between maximum and minimum SPQ values)” value stood at 16061 RFU; the concentration giving a half-maximal response (EC50) amounted to 18.9 µM.

On to `CCCn1c(=O)c2c(nc3n(Cc4ccccc4)c(C)c(C)n23)n(C)c1=O` [Compound I-34], for which the “ΔSPQ (difference between maximum and minimum SPQ values)” value amounted to 9486 RFU; the EC50 is 4.6 µM; the “potency and efficacy compared with VX-809 in SPQ assay” value was “superior potency and efficacy to VX-809”.

Take `CCn1c(=O)c2c(nc3n(-c4cccc(OC)c4)c(C)cn23)n(C)c1=O` [Compound I-35]: the “ΔSPQ (difference between maximum and minimum SPQ values)” value came out at 13989 RFU; the EC50 stood at 18.1 µM.

Take `CCn1c(=O)c2c(nc3n(Cc4ccco4)c(C)c(C)n23)n(C)c1=O` [Compound I-36]: the “ΔSPQ (difference between maximum and minimum SPQ values)” value is 3375 RFU; the concentration for a half-maximal effect (EC50) came out at 7.1 µM.

Take `CCCn1c(=O)c2c(nc3n(C(C)CC)c(C)cn23)n(C)c1=O` (stereo not shown) [Compound I-37]: the “ΔSPQ (difference between maximum and minimum SPQ values)” value turned out to be 8170 RFU; the EC50 stood at 10.7 µM.

Regarding `C=CCn1c(=O)c2c(nc3n(CC(C)C)c(C)c(C)n23)n(C)c1=O` [Compound I-38], the “ΔSPQ (difference between maximum and minimum SPQ values)” value was 8563 RFU; the EC50 amounted to 7.8 µM.

With `Cc1cc(C)cc(-n2c(C)cn3c4c(=O)n(CCCO)c(=O)n(C)c4nc23)c1` [Compound I-39], the “ΔSPQ (difference between maximum and minimum SPQ values)” value is reported as 11432 RFU; the EC50 is 13 µM.

As to `CCOCCn1c(=O)c2c(nc3n2CCN3c2cc(C)ccc2C)n(C)c1=O` [Compound I-40], the “ΔSPQ (difference between maximum and minimum SPQ values)” value is 12347 RFU; the EC50 amounted to 9.5 µM.

Turning to `Cc1c(C)n2c3c(=O)n(CCCO)c(=O)n(C)c3nc2n1-c1ccccc1` [Compound I-41], the “ΔSPQ (difference between maximum and minimum SPQ values)” value came out at 11080 RFU; the EC50 was 20.3 µM.

Regarding `CCc1ccc(-n2c(C)cn3c4c(=O)n(CCCO)c(=O)n(C)c4nc23)cc1` [Compound I-42], the “ΔSPQ (difference between maximum and minimum SPQ values)” value is recorded as 14593 RFU; the EC50 was found to be 19.7 µM.

Take `C=CCn1c(=O)c2c(nc3n(C(C)c4ccccc4)c(C)c(C)n23)n(C)c1=O` (stereo not shown) [Compound I-43]: the “ΔSPQ (difference between maximum and minimum SPQ values)” value amounted to 9439 RFU; the EC50 turned out to be 3.4 µM.

As for `Cc1c(C)n2c3c(=O)n(CC(C)C)c(=O)n(C)c3nc2n1Cc1ccco1` [Compound I-44], the “ΔSPQ (difference between maximum and minimum SPQ values)” value was 9148 RFU; the EC50 turned out to be 10 µM.

As for `CCOCCn1c(=O)c2c(nc3n(-c4ccc(OC)cc4)c(C)c(C)n23)n(C)c1=O` [Compound I-45], the “ΔSPQ (difference between maximum and minimum SPQ values)” value is 5321 RFU; the EC50 came out at 23.3 µM.

For the compound `CCCCn1c(C)cn2c3c(=O)n(CC(=O)OC)c(=O)n(C)c3nc12` [Compound I-46], the “ΔSPQ (difference between maximum and minimum SPQ values)” value is 5027 RFU; the EC50 worked out at 10.6 µM.

On to `Cc1c(C)n2c3c(=O)n(CCCO)c(=O)n(C)c3nc2n1Cc1ccco1` [Compound I-47], for which the “ΔSPQ (difference between maximum and minimum SPQ values)” value worked out at 7294 RFU; the EC50 is 10.6 µM.

`Cc1c(C)n2c3c(=O)n(CCCO)c(=O)n(C)c3nc2n1CCc1ccccc1` [Compound I-48]: the “ΔSPQ (difference between maximum and minimum SPQ values)” value is listed as 5300 RFU; the half-maximal effective concentration (EC50) was found to be 3.3 µM.

`CCC(C)n1c(C)c(C)n2c3c(=O)n(CC(=O)OC)c(=O)n(C)c3nc12` (stereo not shown) [Compound I-49]: the “ΔSPQ (difference between maximum and minimum SPQ values)” value was found to be 9652 RFU; the EC50 was determined as 9 µM.

`Cc1c(C)n2c3c(=O)n(C/C=C/c4ccccc4)c(=O)n(C)c3nc2n1CCCO` [Compound I-50]: the “ΔSPQ (difference between maximum and minimum SPQ values)” value was 3639 RFU; the EC50 is more than 30 µM.

For `CCCCn1c(=O)c2c(nc3n(CCN4CCOCC4)c(C)c(C)n23)n(C)c1=O` [Compound I-51], the “ΔSPQ (difference between maximum and minimum SPQ values)” value was 9639 RFU; the 50% effective concentration (EC50) is more than 30 µM.

`C/C=C/Cn1c(=O)c2c(nc3n(Cc4ccco4)c(C)cn23)n(C)c1=O` [Compound I-52]: the “ΔSPQ (difference between maximum and minimum SPQ values)” value is 6282 RFU; the EC50 is more than 30 µM.

With `C/C=C/Cn1c(=O)c2c(nc3n2CCN3Cc2ccco2)n(C)c1=O` [Compound I-53], the “ΔSPQ (difference between maximum and minimum SPQ values)” value is reported as 6050 RFU; the EC50 is 11 µM.

Regarding `CCn1c(=O)c2c(nc3n2CCN3Cc2ccco2)n(C)c1=O` [Compound I-54], the “ΔSPQ (difference between maximum and minimum SPQ values)” value is recorded as 3397 RFU; the EC50 is more than 30 µM.

Regarding `CC(C)CCn1c(=O)c2c(nc3n2CCN3Cc2ccco2)n(C)c1=O` [Compound I-55], the “ΔSPQ (difference between maximum and minimum SPQ values)” value was 4315 RFU; the EC50 is more than 30 µM.

As for `C/C=C/Cn1c(=O)c2c(nc3n(C(C)CC)c(C)c(C)n23)n(C)c1=O` (stereo not shown) [Compound I-56], the “ΔSPQ (difference between maximum and minimum SPQ values)” value was determined as 2183 RFU; the EC50 came out at 0.2 µM; the “potency and efficacy compared with VX-809 in SPQ assay” value was “superior potency and efficacy to VX-809”.

As for `CCn1c(=O)c2c(nc3n(-c4ccccc4C)c(C)c(C)n23)n(C)c1=O` [Compound I-57], the “ΔSPQ (difference between maximum and minimum SPQ values)” value was determined as 4000 RFU; the EC50 turned out to be 7.9 µM.
